For 13 compounds, IC50 results are on record in US10435398B2, “Oxazole orexin receptor antagonists” (MERCK SHARP & DOHME CORP., priority 2014, dated 2019).

As a reminder, the IC50 is the concentration needed to halve the response being measured. Read a high IC50 as lower potency.

Molecules are shown by their SMILES.

One assay deals with human orexin-2 receptor (Homo sapiens (Human), UniProt O43614). As to the kind of experiment: FLIPR Ca2+ Flux Assay, hOX2R. It is filed as cell-based. The settings on record: CHO cells expressing human orexin-2 receptor; agonist 70 pM Ala-6,12 human orexin-A. Here is the method:
(§1) The utility of the compounds in accordance with the present invention as orexin receptor OX1R and/or OX2R antagonists may be readily determined without undue experimentation by methodology well known in the art, including the “FLIPR Ca^2+ Flux Assay” (Okumura et al., Biochem. Biophys. Res. Comm. 280:976-981, 2001). In a typical experiment the OX1 and OX2 receptor antagonistic activity of the compounds of the present invention was determined in accordance with the following experimental method. For intracellular calcium measurements, Chinese hamster ovary (CHO) cells expressing the rat or human orexin-1 receptor or the human orexin-2 receptor, are grown in Iscove's modified DMEM containing 2 mM L-glutamine, […], 1% hypoxanthine-thymidine supplement, 100 U/ml penicillin, 100 μg/ml streptomycin and 10% heat-inactivated fetal calf serum (FCS). The cells are seeded at 20,000 cells/well into Becton-Dickinson black 384-well clear bottom sterile plates coated with poly-D-lysine. All reagents were from GIBCO-Invitrogen Corp. The seeded plates are incubated overnight at 37° C. and 5% CO2. Ala-6,12 human orexin-A as the agonist is prepared as a 1 mM stock solution in 1% bovine serum albumin (BSA) and diluted in assay buffer (HBSS containing 20 mM HEPES, 0.1% BSA and 2.5 mM probenecid, pH7.4) for use in the assay at a final concentration of 70 pM. Test compounds are prepared as 10 mM stock solution in DMSO, then diluted in 384-well plates, first in DMSO, then assay buffer. On the day of the assay, cells are washed 3 times with 100 μl assay buffer and then incubated for 60 min (37° C., 5% CO2) in 60 μl assay buffer containing 1 μM Fluo-4AM ester, 0.02% pluronic acid, and 1% BSA. The dye loading solution is then aspirated and cells are washed 3 times with 100 μl assay buffer. 30 μl of that same buffer is left in each well. Within the Fluorescent Imaging Plate Reader (FLIPR, Molecular Devices), test compounds are added to the plate in a volume of 25 μl, incubated for 5 min and finally 25 μl of agonist is added. Fluorescence is measured for each well at 1 second intervals for 5 minutes and the height of each fluorescence peak is compared to the height of the fluorescence peak induced by 70 pM Ala-6,12 orexin-A with buffer in place of antagonist. For each antagonist, IC50 value (the concentration of compound needed to inhibit 50% of the agonist response) is determined. Alternatively, compound potency can be assessed by a radioligand binding assay (described in Bergman et. al. Bioorg. Med. Chem. Lett. 2008, 18, 1425-1430) in which the inhibition constant (Ki) is determined in membranes prepared from CHO cells expressing either the OX1 or OX2 receptor. The intrinsic orexin receptor antagonist activity of a compound which may be used in the present invention may be determined by these assays.

In a further assay the target is human orexin-1 receptor (Homo sapiens (Human), UniProt O43613). As to the kind of experiment: FLIPR Ca2+ Flux Assay, hOX1R. It is filed as cell-based. The settings on record: CHO cells expressing human orexin-1 receptor; agonist 70 pM Ala-6,12 human orexin-A. Here is the method: as §1
On the technique in general: A change in cytosolic calcium serves as a functional read-out for many receptors and channels.

Chain of human orexin-2 receptor (O43614 whole entry): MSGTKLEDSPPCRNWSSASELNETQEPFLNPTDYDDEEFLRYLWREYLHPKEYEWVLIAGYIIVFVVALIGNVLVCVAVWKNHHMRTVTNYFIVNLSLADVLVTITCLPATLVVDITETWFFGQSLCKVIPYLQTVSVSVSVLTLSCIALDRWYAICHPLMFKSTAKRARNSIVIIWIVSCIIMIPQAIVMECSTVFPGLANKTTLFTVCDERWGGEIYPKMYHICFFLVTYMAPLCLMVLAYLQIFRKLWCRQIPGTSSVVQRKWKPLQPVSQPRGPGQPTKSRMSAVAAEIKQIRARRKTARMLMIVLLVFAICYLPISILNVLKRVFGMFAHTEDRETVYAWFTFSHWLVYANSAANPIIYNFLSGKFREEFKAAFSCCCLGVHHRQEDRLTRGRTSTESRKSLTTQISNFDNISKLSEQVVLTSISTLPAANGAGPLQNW
Chain of human orexin-1 receptor (O43613 whole entry): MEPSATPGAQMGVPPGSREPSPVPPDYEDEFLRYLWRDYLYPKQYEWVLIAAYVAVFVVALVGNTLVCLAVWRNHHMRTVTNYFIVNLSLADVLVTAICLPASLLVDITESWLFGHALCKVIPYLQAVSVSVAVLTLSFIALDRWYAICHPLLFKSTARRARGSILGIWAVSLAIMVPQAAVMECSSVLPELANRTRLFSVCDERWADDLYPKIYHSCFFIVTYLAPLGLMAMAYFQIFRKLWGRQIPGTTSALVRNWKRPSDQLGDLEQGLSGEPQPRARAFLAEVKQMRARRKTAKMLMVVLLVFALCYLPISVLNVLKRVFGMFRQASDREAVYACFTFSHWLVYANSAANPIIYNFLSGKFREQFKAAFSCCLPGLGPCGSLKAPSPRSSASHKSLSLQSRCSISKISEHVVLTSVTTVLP

Turning to `CCN(CCc1nc(C(C)(O)CC)c(C)o1)C(=O)c1ccccc1-n1nccn1` (centres unmarked) [Example 19, N-Ethyl-N-{2-[4-(1-hydroxy-1-methylpropyl)-5-methyl-1,3-oxazol-2-yl]ethyl}-2-(2H-1,2,3-triazol-2-yl)benzamide], the 50% inhibitory concentration (IC50) was 12 nM on human orexin-2 receptor and 3380 nM at human orexin-1 receptor.
In the same order, the values of `Cc1oc(CCN(CC(F)F)C(=O)c2ccccc2-n2nccn2)nc1C(C)(C)O` [Example 24, N-(2,2-Difluoroethyl)-N-{2-[4-(1-hydroxy-1-methylethyl)-5-methyl-1,3-oxazol-2-yl]ethyl}-2-(2H-1,2,3-triazol-2-yl)benzamide] are 68 nM and over 10000 nM.
The like results for `CCN(CCc1nc(C(C)(C)O)c(C)o1)C(=O)c1ccc(OC)cc1-n1nccn1` [Example 8, N-Ethyl-N-{2-[4-(1-hydroxy-1-methylethyl)-5-methyl-1,3-oxazol-2-yl]ethyl}-4-methoxy-2-(2H-1,2,3-triazol-2-yl)benzamide] were, in that order, 82 nM and over 10000 nM.
In the same order, the values of `CCN(CCc1nc(C(C)(C)O)c(C)o1)C(=O)c1cccnc1OCC(F)(F)F` [Example 13, N-Ethyl-N-{2-[4-(1-hydroxy-1-methylethyl)-5-methyl-1,3-oxazol-2-yl]ethyl}-2-(2,2,2-trifluoroethoxy)pyridine-3-carboxamide] are 98 nM and over 10000 nM.
As to `C=CCN(CCc1nc(C(C)(C)O)c(C)o1)C(=O)c1ccccc1-n1nccn1` [Example 21, N-{2-[4-(1-Hydroxy-1-methylethyl)-5-methyl-1,3-oxazol-2-yl]ethyl}-N-prop-2-en-1-yl-2-(2H-1,2,3-triazol-2-yl)benzamide], the 50% inhibitory concentration (IC50) at human orexin-2 receptor stood at 19 nM; on human orexin-1 receptor, 1010 nM.
In the case of `Cc1oc(CCN(CCO)C(=O)c2ccccc2-n2nccn2)nc1C(C)(C)O` [Example 28, N-(2-hydroxyethyl)-N-(2-(4-(2-hydroxypropan-2-yl)-5-methyloxazol-2-yl)ethyl)-2-(2H-1,2,3-triazol-2-yl)benzamide], the IC50 at human orexin-2 receptor was 98 nM; on human orexin-1 receptor it was over 10000 nM.
Turning to `CCN(CCc1nc(C(C)(C)O)c(C)o1)C(=O)c1ccccc1C1(C(F)F)CC1` [Example 18b, 2-(1-(difluoro-methyl)cyclopropyl)-N-ethyl-N-(2-(4-(2-hydroxypropan-2-yl)-5-methyloxazol-2-yl)ethyl)benzamide], the values for the IC50 at human orexin-2 receptor and on human orexin-1 receptor were 145 nM and over 10000 nM, respectively.
For `CCN(CCc1nc(C(C)(C)O)c(C)o1)C(=O)c1ccsc1-n1nccn1` [Example 12, N-Ethyl-N-{2-[4-(1-hydroxy-1-methylethyl)-5-methyl-1,3-oxazol-2-yl]ethyl}-2-(2H-1,2,3-triazol-2-yl)thiophene-3-carboxamide], the 50% inhibitory concentration (IC50) at human orexin-2 receptor was 63 nM; on human orexin-1 receptor, over 10000 nM.
In the same order, the values of `Cc1oc(CCN(C(=O)c2ccccc2-n2nccn2)C2CCC2)nc1C(C)(C)O` [Example 32, N-Cyclobutyl-N-(2-(4-(2-hydroxypropan-2-yl)-5-methyloxazol-2-yl)ethyl)-2-(2H-1,2,3-triazol-2-yl)benzamide] are 38 nM and 8180 nM.
With `CCN(CCc1nc(C(C)(C)O)c(C)o1)C(=O)c1ccccc1C(=O)OC` [Example 16, Methyl 2-(ethyl{2-[4-(1-hydroxy-1-methylethyl)-5-methyl-1,3-oxazol-2-yl]ethyl}carbamoyl)benzoate], the IC50 was 630 nM at human orexin-2 receptor and over 10000 nM at human orexin-1 receptor.
In the same order, the values of `COCCCN(CCc1nc(C(C)(C)O)c(C)o1)C(=O)c1ccccc1-n1nccn1` [Example 33, N-(2-(4-(2-Hydroxypropan-2-yl)-5-methyloxazol-2-yl)ethyl)-N-(3-methoxypropyl)-2-(2H-1,2,3-triazol-2-yl)benzamide] are 119 nM and over 10000 nM.
As to `CCN(CCc1nc(C(C)(C)O)c(C)o1)C(=O)c1ccccc1-c1ccccc1` [Example 1, N-Ethyl-N-(2-(4-(2-hydroxypropan-2-yl)-5-methyloxazol-2-yl)ethyl)-[1,1′-biphenyl]-2-carboxamide], the results for the IC50 on human orexin-2 receptor and at human orexin-1 receptor were 29 nM and 1830 nM, respectively.
In the same order, the values of `COCCN(CCc1nc(C(C)(C)O)c(C)o1)C(=O)c1ccccc1-n1nccn1` [Example 29, N-(2-(4-(2-Hydroxypropan-2-yl)-5-methyloxazol-2-yl)ethyl)-N-(2-methoxyethyl)-2-(2H-1,2,3-triazol-2-yl)benzamide] are 19 nM and over 10000 nM.
